{
  "source": "paper PMC12040169",
  "about": "(PLOS Biology, 2025)",
  "data": [
    {"assay": "in vitro", "conditions": "human, hela cells, % viability", "units": {"viability at 28.5 h, 10 µM": "%"}, "values": [
      {"smiles": "CN1CCC(N2CCN(C(=O)c3ccc(-c4ccc(S(C)(=O)=O)cc4)nc3)CC2)CC1", "note": "[CBK158862]", "viability at 28.5 h, 10 µM": 91.6},
      {"smiles": "CS(=O)(=O)c1ccc(-c2ccc(C(=O)NCc3cccc(C(F)(F)F)c3)cn2)cc1", "note": "[CBK158874]", "viability at 28.5 h, 10 µM": 91.4},
      {"smiles": "CCNC(=O)c1ccc(-c2ccc(S(C)(=O)=O)cc2)nc1", "note": "[CBK158882]", "viability at 28.5 h, 10 µM": 91.9},
      {"smiles": "CS(=O)(=O)c1ccc(-c2ccc(C(=O)NCc3ccccc3)cn2)cc1", "note": "[CBK158885]", "viability at 28.5 h, 10 µM": 89.2},
      {"smiles": "Cc1cc(CNC(=O)N2CCN(CCc3ccccc3)CC2)no1", "note": "[CBK158898]", "viability at 28.5 h, 10 µM": 92.7},
      {"smiles": "O=C(NCc1cccc(C(F)(F)F)c1)N1CCN(CCc2ccccc2)CC1", "note": "[CBK158902]", "viability at 28.5 h, 10 µM": 90.1},
      {"smiles": "O=C(NC(c1ccccc1)c1ccccc1)N1CCN(CCc2ccccc2)CC1", "note": "[CBK158905]", "viability at 28.5 h, 10 µM": 101},
      {"smiles": "O=C(NCc1cccnc1)N1CCN(CCc2ccccc2)CC1", "note": "[CBK158906]", "viability at 28.5 h, 10 µM": 93.7},
      {"smiles": "COCCNC(=O)N1CCN(CCc2ccccc2)CC1", "note": "[CBK158909]", "viability at 28.5 h, 10 µM": 97.3},
      {"smiles": "COc1ccc(CCNC(=O)N2CCN(CCc3ccccc3)CC2)cc1OC", "note": "[CBK158915]", "viability at 28.5 h, 10 µM": 102},
      {"smiles": "O=C(NCc1ccc(Cl)cc1)N1CCN(CCc2ccccc2)CC1", "note": "[CBK158922]", "viability at 28.5 h, 10 µM": 90.7},
      {"smiles": "O=C1CCCN1CCCNC(=O)N1CCN(CCc2ccccc2)CC1", "note": "[CBK158932]", "viability at 28.5 h, 10 µM": 91},
      {"smiles": "CC(NC(=O)N1CCN(CCc2ccccc2)CC1)c1ccccc1", "note": "(stereo not shown) [CBK158935]", "viability at 28.5 h, 10 µM": 85.1},
      {"smiles": "O=C(Nc1cccnc1)N1CCN(CCc2ccccc2)CC1", "note": "[CBK158937]", "viability at 28.5 h, 10 µM": 95.4},
      {"smiles": "CCN(CC)CCN(C(=O)Nc1ccc(C(N)=O)cc1)C(C)c1ccc(OC)c(OC)c1", "note": "(stereo not shown) [CBK158962]", "viability at 28.5 h, 10 µM": 108},
      {"smiles": "COc1ccc(C(C)N(CCN2CCOCC2)C(=O)NCc2cccnc2)cc1OC", "note": "(stereo not shown) [CBK158986]", "viability at 28.5 h, 10 µM": 114},
      {"smiles": "CCN(CC)CCN(Cc1ccc2c(c1)OCO2)C(=O)Nc1cccc(NC(C)=O)c1", "note": "[CBK159042]", "viability at 28.5 h, 10 µM": 108},
      {"smiles": "CCN(CC)CCN(Cc1ccc2c(c1)OCO2)C(=O)Nc1ccc(C)cc1", "note": "[CBK159059]", "viability at 28.5 h, 10 µM": 89.3},
      {"smiles": "CC(C)CN(Cc1ccc2c(c1)OCO2)C(=O)NCc1ccc(Cl)c(Cl)c1", "note": "[CBK159069]", "viability at 28.5 h, 10 µM": 95.3},
      {"smiles": "CC(C)CN(Cc1ccc2c(c1)OCO2)C(=O)NCc1ccc2c(c1)OCO2", "note": "[CBK159071]", "viability at 28.5 h, 10 µM": 96.4},
      {"smiles": "COc1ccc(CN(CCCN2CCOCC2)C(=O)NCCCN2CCCC2=O)cc1OC", "note": "[CBK159180]", "viability at 28.5 h, 10 µM": 93.2},
      {"smiles": "CCOC(=O)N1CCC(NC(=O)N(CCCN(C)C)Cc2ccc3c(c2)OCO3)CC1", "note": "[CBK159231]", "viability at 28.5 h, 10 µM": 91},
      {"smiles": "COc1ccc(CN(CCN(C)C)C(=O)NCc2ccc(-c3ccccc3)cc2)cc1OC", "note": "[CBK159293]", "viability at 28.5 h, 10 µM": 91.4},
      {"smiles": "COc1ccc(CN(CCN2CCOCC2)C(=O)Nc2cccnc2)cc1OC", "note": "[CBK159379]", "viability at 28.5 h, 10 µM": 93.2},
      {"smiles": "CCN(CC)c1ccc(CN(CCCN(C)C)C(=O)NCc2ccc(F)cc2)cc1", "note": "[CBK159410]", "viability at 28.5 h, 10 µM": 89.9},
      {"smiles": "CSCCCNC(=O)N(Cc1cccnc1)Cc1ccc2c(c1)OCO2", "note": "[CBK159426]", "viability at 28.5 h, 10 µM": 92.7},
      {"smiles": "CCc1c(C)nc2ccc(NC(C)=O)cc2c1SCCC(=O)O", "note": "[CBK159465T]", "viability at 28.5 h, 10 µM": 98.7},
      {"smiles": "O=C(O)Cc1nc(-c2ccccc2)c(-c2ccccc2)s1", "note": "[CBK159470]", "viability at 28.5 h, 10 µM": 99.4},
      {"smiles": "CCCS(=O)(=O)Nc1cccc2[nH]ccc12", "note": "[CBK159488]", "viability at 28.5 h, 10 µM": 97.5},
      {"smiles": "O=S(=O)(Cc1ccccc1)Nc1cccc2[nH]ccc12", "note": "[CBK159490]", "viability at 28.5 h, 10 µM": 76.6},
      {"smiles": "CN(C)S(=O)(=O)Nc1cccc2cc[nH]c12", "note": "[CBK159505]", "viability at 28.5 h, 10 µM": 92.8},
      {"smiles": "CS(=O)(=O)Nc1cccc2cc[nH]c12", "note": "[CBK159509]", "viability at 28.5 h, 10 µM": 110},
      {"smiles": "O=S(=O)(Nc1ccc2c(ccn2Cc2ccccc2)c1)c1ccc(S(=O)(=O)c2ccccc2)s1", "note": "[CBK159533]", "viability at 28.5 h, 10 µM": 114},
      {"smiles": "O=[N+]([O-])c1ccc(S(=O)(=O)Nc2cccc3[nH]ccc23)cc1", "note": "[CBK159550]", "viability at 28.5 h, 10 µM": 87.1},
      {"smiles": "CCc1c(C)nc2c(N3CCOC3=O)cccc2c1SCCC(=O)O", "note": "[CBK159595T]", "viability at 28.5 h, 10 µM": 91.7},
      {"smiles": "O=C(Nc1cccc2[nH]ccc12)c1ccc(Cl)cc1", "note": "[CBK159632]", "viability at 28.5 h, 10 µM": 91.7},
      {"smiles": "O=C(Nc1cccc2[nH]ccc12)c1cccc(F)c1Cl", "note": "[CBK159638]", "viability at 28.5 h, 10 µM": 76.4},
      {"smiles": "O=C(Nc1cccc2[nH]ccc12)c1ccc(Br)cc1Cl", "note": "[CBK159643]", "viability at 28.5 h, 10 µM": 78.7},
      {"smiles": "CC(C(=O)Nc1cccc2[nH]ccc12)c1ccc(Cl)cc1", "note": "(stereo not shown) [CBK159647]", "viability at 28.5 h, 10 µM": 107},
      {"smiles": "O=C(Cc1cc(F)cc(F)c1F)Nc1cccc2[nH]ccc12", "note": "[CBK159650]", "viability at 28.5 h, 10 µM": 89},
      {"smiles": "O=C(COc1ccc(F)cc1)Nc1cccc2[nH]ccc12", "note": "[CBK159653]", "viability at 28.5 h, 10 µM": 86},
      {"smiles": "CSCCC(=O)Nc1cccc2[nH]ccc12", "note": "[CBK159655]", "viability at 28.5 h, 10 µM": 105},
      {"smiles": "O=C(Nc1cccc2[nH]ccc12)c1ccc2c(c1)OCCO2", "note": "[CBK159657]", "viability at 28.5 h, 10 µM": 85.7},
      {"smiles": "O=C(Nc1cccc2[nH]ccc12)c1ccoc1", "note": "[CBK159659]", "viability at 28.5 h, 10 µM": 94.8},
      {"smiles": "CN(C)CCCC(=O)Nc1cccc2[nH]ccc12", "note": "[CBK159660]", "viability at 28.5 h, 10 µM": 99.9},
      {"smiles": "O=C(Cc1c(Cl)cccc1Cl)Nc1ccc2[nH]ccc2c1", "note": "[CBK159664]", "viability at 28.5 h, 10 µM": 113}
    ]}
  ]
}
